{"source": "paper PMC7617978", "about": "“Anti-trypanosomal quinazolines targeting lysyl-tRNA synthetases show partial efficacy in a mouse model of acute Chagas disease” (Science translational medicine, 2025)", "key": {"CYP2D6": {"target": "CYP2D6 (Homo sapiens, UniProt P10635)", "sequence (P10635 whole entry, canonical isoform)": "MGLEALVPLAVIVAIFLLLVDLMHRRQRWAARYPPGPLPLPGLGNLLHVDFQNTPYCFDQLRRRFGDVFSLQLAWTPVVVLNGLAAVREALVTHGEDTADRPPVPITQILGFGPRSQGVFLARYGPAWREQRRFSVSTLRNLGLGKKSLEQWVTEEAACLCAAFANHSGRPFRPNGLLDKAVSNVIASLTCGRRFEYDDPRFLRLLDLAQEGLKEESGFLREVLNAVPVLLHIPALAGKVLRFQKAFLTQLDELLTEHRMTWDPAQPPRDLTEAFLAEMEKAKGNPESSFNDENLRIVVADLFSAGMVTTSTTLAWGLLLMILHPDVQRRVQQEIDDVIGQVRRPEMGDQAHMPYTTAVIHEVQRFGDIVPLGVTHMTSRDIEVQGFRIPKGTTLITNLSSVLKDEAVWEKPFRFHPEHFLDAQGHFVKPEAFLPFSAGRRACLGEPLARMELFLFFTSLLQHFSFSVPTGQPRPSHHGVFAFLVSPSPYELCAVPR", "assay": "In vitro CYP inhibition, 2D6", "assay_type": "in vitro ADME", "experimental": "Compounds were screened for CYP inhibition activity using the protocol established by TCG Lifesciences (India). The activity of five CYP450 isoforms: 1A2; 2C9; 2D6, 3A4; and 2C19 was monitored in the presence of test or control (miconazole) compounds at 10 µM. Reactions were terminated after 10 min (30 min for CYP2C19) by the addition of acetonitrile, centrifuged and analysed via LC-MS/MS. […]"}, "Plasma protein binding": {"assay": "Plasma protein binding", "assay_type": "in vitro ADME", "conditions": "read-out: bound to plasma proteins (converted)", "experimental": "The propensity of DMU759 to bind to plasma proteins was determined as previously described ([21])."}, "[1]": {"tested_on": "Lysyl-tRNA synthetase 1 (KRS1)", "assay": "Isothermal proteome profiling (iTPP), TcKRS1", "assay_type": "binding, T. cruzi", "conditions": "KRS1 (C4B63_45g239); lysate, compound at 10× EC50, 48°C", "experimental": "(§1) T. cruzi epimastigote lysates were generated as previously described ([29]). Isothermal TPP assays were performed as previously described ([25]). […] Data processing and analyses were performed as previously described ([25]), except proteins were identified via searches against the T. cruzi Dm28C proteome (tritrypdb.org, version 49)."}, "[2]": {"tested_on": "T. cruzi epimastigote lysates", "assay": "Isothermal proteome profiling (iTPP), other hit proteins", "assay_type": "binding", "conditions": "10× EC50, 48°C", "experimental": "as §1"}, "[3]": {"conditions": "19S proteasome regulatory subunit (C4B63_14g170)"}, "[4]": {"conditions": "Conserved hypothetical protein (C4B63_42g251)"}, "[5]": {"conditions": "Mitochondrial processing peptidase, beta subunit (C4B63_3g1101)"}, "[6]": {"conditions": "Ribosomal protein S26 (C4B63_6g2300)"}, "[7]": {"conditions": "cysteine peptidase, Clan CA, family C2 (C4B63_22g162)"}}}
{"smiles": "Cc1nc(N)c2c(F)c(F)c(SC3CCCCC3)c(F)c2n1", "note": "[DMU759, 7-(Cyclohexylthio)-5,6,8-trifluoro-2-methylquinazolin-4-amine]", "values": [{"measurement": "inhibition at 10 min, 10 µM", "setting": "CYP2D6", "value": "14.5 ± 2.5", "unit": "%"}, {"measurement": "fraction unbound", "setting": "Plasma protein binding", "value": 0.11}, {"measurement": "Abundance Log2 fold change Rep 1", "setting": "[1]", "value": 2.26}, {"measurement": "Abundance Log2 fold change Rep 2", "setting": "[1]", "value": 1.94}, {"measurement": "Abundance Log2 fold change Rep 1", "setting": "[2]; [3]", "value": -2.64}, {"measurement": "Abundance Log2 fold change Rep 2", "setting": "[2]; [3]", "value": -3.79}, {"measurement": "Abundance Log2 fold change Rep 1", "setting": "[2]; [4]", "value": -2.25}, {"measurement": "Abundance Log2 fold change Rep 2", "setting": "[2]; [4]", "value": -1.75}, {"measurement": "Abundance Log2 fold change Rep 1", "setting": "[2]; [5]", "value": -2.04}, {"measurement": "Abundance Log2 fold change Rep 2", "setting": "[2]; [5]", "value": -2.35}, {"measurement": "Abundance Log2 fold change Rep 1", "setting": "[2]; P-type H+-ATPase (C4B63_116g3)", "value": -2.27}, {"measurement": "Abundance Log2 fold change Rep 2", "setting": "[2]; P-type H+-ATPase (C4B63_116g3)", "value": -1.74}, {"measurement": "Abundance Log2 fold change Rep 1", "setting": "[2]; [6]", "value": -1.59}, {"measurement": "Abundance Log2 fold change Rep 2", "setting": "[2]; [6]", "value": -1.80}, {"measurement": "Abundance Log2 fold change Rep 1", "setting": "[2]; [7]", "value": -1.58}, {"measurement": "Abundance Log2 fold change Rep 2", "setting": "[2]; [7]", "value": -2.80}]}
